Assays:
DC-3F cells = experiment: Calcium electroporation with two calcium sources, MTT assay; assay type: cell-based, Chinese hamster; settings: 1 mM, 8 pulses, 0-1.6 kV/cm; MTT 1 day after treatment
Procedure: DC-3F cells were electroporated as described in example 1 with 1 mM calcium chloride (prepared by SAD, Denmark) or 1 mM calcium glubionate (Sandoz, Holzkirchen, Germany). The calcium concentration was chosen based on the experiment described in example 1 where 1 mM calcium is the lowest concentration inducing high cell death. The cells were electroporated with 8 pulses of […] at 1 Hz and increasing electric field (0-1.6 kV/cm). After 20 min at 37° C. and 5% CO2 cells were diluted in RPMI 1640 culture medium with 10% fetal calf serum and penicillin-streptomycin and seeded in 96-well plates at a concentration of 3.1×10^4 cells/100 μl.

[1] = test system: DC-3F, K-562 and Lewis Lung Carcinoma cells; experiment: In vitro electroporation, MTT viability assay; assay type: cell-based, Chinese hamster, human, murine; settings: electroporated; data not shown
Procedure: Three cell lines are used for in vitro experiments, DC-3F, a transformed Chinese hamster lung fibroblast cell line; K-562, a human leukemia cell line; and Lewis Lung Carcinoma, a murine lung carcinoma cell line. DC-3F cells were tested for mycoplasma in January 2011, K-562 cells were tested for mycoplasma in 2008 prior to freezing and thawing just before experiments were performed, and Lewis Lung cells were tested by rapid MAP27 panel (Taconic, Hudson N.Y.) in July 2011 without signs of infection. Cells are maintained in RPMI 1640 culture medium (GIBCO™, Life Technologies, Carlsbad, Calif.) with 10% fetal calf serum (GIBCO™, Life Technologies, Carlsbad, Calif.), penicillin and streptomycin at 37° C. and 5% C02. After harvesting, cells are washed and diluted in HEPES buffer containing 10 mM HEPES (Lonza, Basel, Switzerland), 250 mM sucrose and 1 mM MgCl2 in sterile water. 270 μl cell suspension (6.1×10^6 cells/ml) and 30 μl CaCl2, or in the case of controls, HEPES buffer, are electroporated in 4 mm wide cuvettes with aluminium electrodes (Molecular BioProducts, Inc., San Diego, Calif.). Cooled cells (8° C.) are exposed to 8 pulses of 1.2 kV/cm with pulse duration of 99 μs (DC-3F and K562 cells) or 8 pulses of 1.4 kV/cm with pulse duration of 99 μs (Lewis Lung Carcinoma) using a BTX® T820 square wave electroporator (BTX®, Harvard Apparatus, Holliston, Mass.). The electroporation parameters are chosen after optimization to obtain high permabilisation and cell survival. After 20 min at 37° C. and 5% CO2 cells are diluted in RPMI 1640 culture medium with 10% fetal calf serum and penicillin-streptomycin and seeded in 96-well plates at a concentration of 3.1×10^4 cells/100 μl.
Difference between electroporated and non-electroporated cells in identical buffer is assessed using two-way analysis of variance (ANOVA) with post least-squares-means test with Bonferroni correction for multiple comparisons.

Compound | effect of calcium electroporation on cell viability, calcium chloride versus calcium glubionate (DC-3F cells) | concentration giving a decrease in viability similar to calcium electroporation [1]
O.O=C([O-])[C@H](O)[C@@H](O)[C@H](O)[C@H](O)CO.O=C([O-])[C@H](O)[C@@H](O)[C@H](O[C@@H]1O[C@H](CO)[C@H](O)[C@H](O)[C@H]1O)[C@H](O)CO.[Ca+2] [calcium glubionate] | no difference | 
bleomycin |  | ≥ 0.1 µM
